# In patent US9573956B2, “Compounds as dual inhibitors of phosphodiesterases and histone deacetylases” (FUNDACIÓN PARA LA INVESTIGACIÓN MÉDICA APLICADA, priority 2013, dated 2017):
# How the values were obtained:
# Assay type in all cases: biochemical
# HDAC1 = HDAC1 (Homo sapiens, UniProt Q13547); test: HDAC enzyme activity assay (fluorogenic substrate), HDAC1; conditions: recombinant enzyme; read-out: HDAC1 inhibition (IC50)
# PDE9A isoform b = target: T1, PDE9A isoform b (Homo sapiens, UniProt O76083); test: PDE enzyme activity assay (HTRF cGMP), PDE9A; conditions: recombinant enzyme; read-out: PDE9A inhibition (IC50)
# T1 construct: they are full-length with N-terminal GST tag; GST (N); purchased BPS Biosciences 60090; host or cells: baculovirus infected Sf9 cells
# T1 sequence (O76083 1-533 isoform O76083-2): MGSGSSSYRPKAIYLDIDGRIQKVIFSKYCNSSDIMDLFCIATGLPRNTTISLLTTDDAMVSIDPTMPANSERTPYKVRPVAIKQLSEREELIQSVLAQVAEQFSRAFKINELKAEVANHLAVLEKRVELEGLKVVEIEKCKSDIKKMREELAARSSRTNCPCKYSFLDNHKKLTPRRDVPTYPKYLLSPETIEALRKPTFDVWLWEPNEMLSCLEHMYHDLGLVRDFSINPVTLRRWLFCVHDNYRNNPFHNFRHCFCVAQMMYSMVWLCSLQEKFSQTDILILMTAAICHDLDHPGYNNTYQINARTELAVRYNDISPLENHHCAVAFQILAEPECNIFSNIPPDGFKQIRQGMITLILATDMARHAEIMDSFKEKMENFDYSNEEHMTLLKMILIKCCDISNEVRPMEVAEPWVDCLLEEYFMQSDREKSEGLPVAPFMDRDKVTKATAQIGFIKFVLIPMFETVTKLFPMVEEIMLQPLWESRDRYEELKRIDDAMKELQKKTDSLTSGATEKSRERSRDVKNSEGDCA
# PDE5A = target: T2, PDE5A (Homo sapiens, UniProt O76074); test: PDE enzyme activity assay (HTRF cGMP), PDE5A; conditions: recombinant enzyme; read-out: PDE5A1 inhibition (IC50)
# T2 construct: they are full-length with N-terminal GST tag; GST (N); purchased BPS Biosciences 60050; host or cells: baculovirus infected Sf9 cells
# HDAC6 = target: T3, HDAC6 (Homo sapiens, UniProt Q9UBN7); test: HDAC enzyme activity assay (fluorogenic substrate), HDAC6; conditions: recombinant enzyme; read-out: HDAC6 inhibition (IC50)
# T3 construct: BC069243; Cat. #50006) is full-length with N-terminal GST tag; GST (N); purchased BPS Biosciences 50006; host or cells: baculovirus infected Sf9 cells
# T3 sequence (Q9UBN7 1-1215): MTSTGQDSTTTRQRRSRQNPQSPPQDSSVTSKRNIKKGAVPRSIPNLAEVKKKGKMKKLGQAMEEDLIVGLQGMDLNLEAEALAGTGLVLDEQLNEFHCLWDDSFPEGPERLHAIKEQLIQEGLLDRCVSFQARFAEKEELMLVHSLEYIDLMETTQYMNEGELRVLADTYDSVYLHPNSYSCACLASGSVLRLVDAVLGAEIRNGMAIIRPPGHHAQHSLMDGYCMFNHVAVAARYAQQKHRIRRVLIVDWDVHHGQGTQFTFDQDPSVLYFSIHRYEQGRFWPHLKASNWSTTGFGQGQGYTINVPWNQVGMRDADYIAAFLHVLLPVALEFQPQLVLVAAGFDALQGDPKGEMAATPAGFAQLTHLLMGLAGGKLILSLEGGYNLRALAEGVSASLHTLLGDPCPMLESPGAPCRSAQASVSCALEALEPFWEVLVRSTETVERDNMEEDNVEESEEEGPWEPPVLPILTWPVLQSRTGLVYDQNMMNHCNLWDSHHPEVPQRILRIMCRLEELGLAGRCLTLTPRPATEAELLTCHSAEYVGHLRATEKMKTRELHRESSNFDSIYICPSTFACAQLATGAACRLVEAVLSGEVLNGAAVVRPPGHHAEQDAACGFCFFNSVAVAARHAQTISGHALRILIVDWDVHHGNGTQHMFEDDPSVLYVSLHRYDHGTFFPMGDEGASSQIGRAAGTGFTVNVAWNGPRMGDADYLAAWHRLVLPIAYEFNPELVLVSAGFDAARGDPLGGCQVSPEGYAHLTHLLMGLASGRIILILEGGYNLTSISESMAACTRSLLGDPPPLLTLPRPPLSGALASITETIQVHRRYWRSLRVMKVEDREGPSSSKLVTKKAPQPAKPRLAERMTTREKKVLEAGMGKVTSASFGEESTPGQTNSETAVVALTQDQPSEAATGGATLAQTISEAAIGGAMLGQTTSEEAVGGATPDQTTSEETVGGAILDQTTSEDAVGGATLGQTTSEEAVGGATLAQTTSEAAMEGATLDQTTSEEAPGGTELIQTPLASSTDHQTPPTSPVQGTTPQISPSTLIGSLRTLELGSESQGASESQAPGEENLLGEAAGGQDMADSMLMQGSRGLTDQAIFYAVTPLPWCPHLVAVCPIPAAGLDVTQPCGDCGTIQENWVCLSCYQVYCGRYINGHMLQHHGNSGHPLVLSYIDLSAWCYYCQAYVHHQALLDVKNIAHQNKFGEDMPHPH
# HDAC2 = target: T4, HDAC2 (Homo sapiens, UniProt Q92769); test: HDAC enzyme activity assay (fluorogenic substrate), HDAC2; conditions: recombinant enzyme; read-out: HDAC2 inhibition (IC50)
# T4 construct: NM_001527; Cat. #50002) is full-length with C-terminal his tag; His (C); purchased BPS Biosciences 50002; host or cells: baculovirus infected Sf9 cells
# T4 sequence (Q92769 whole entry): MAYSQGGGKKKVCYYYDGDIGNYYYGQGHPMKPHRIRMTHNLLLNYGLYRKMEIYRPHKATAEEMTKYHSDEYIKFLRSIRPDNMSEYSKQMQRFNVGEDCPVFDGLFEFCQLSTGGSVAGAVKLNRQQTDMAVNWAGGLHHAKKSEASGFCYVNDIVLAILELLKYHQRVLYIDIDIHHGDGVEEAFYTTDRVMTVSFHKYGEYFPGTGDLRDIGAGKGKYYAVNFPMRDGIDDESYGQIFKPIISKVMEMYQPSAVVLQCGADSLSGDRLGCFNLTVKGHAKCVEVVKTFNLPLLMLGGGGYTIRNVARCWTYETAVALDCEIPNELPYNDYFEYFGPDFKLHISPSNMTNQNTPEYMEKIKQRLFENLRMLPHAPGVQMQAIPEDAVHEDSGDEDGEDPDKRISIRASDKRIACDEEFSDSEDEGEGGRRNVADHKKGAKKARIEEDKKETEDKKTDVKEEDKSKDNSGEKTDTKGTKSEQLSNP
# HDAC1, sequence (Q13547 whole entry, canonical isoform): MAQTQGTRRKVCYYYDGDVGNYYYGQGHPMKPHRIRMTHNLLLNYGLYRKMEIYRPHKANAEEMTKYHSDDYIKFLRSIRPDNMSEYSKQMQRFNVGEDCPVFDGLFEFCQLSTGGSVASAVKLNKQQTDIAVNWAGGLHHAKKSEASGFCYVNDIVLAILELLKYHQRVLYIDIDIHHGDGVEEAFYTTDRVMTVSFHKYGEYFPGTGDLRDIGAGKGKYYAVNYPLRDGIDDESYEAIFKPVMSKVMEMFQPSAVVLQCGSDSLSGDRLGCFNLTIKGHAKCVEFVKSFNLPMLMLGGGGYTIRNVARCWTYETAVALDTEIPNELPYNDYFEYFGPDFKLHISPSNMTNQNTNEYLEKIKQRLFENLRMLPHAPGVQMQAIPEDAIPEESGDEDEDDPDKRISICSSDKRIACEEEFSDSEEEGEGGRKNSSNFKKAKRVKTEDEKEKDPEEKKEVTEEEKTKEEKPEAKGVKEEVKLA
SMILES,IC50 (HDAC1) [nM],IC50 (PDE9A isoform b) [nM],IC50 (PDE5A) [nM],IC50 (HDAC6) [nM],IC50 (HDAC2) [nM]
CCCc1nn(C)c2c(=O)[nH]c(-c3cc(OC4CCC(C(=O)NO)CC4)ccc3OCC)nc12 (stereo not drawn) [Example 1-53],1000 to 10000,,10 to 1000,1000 to 10000,1000 to 10000
CCCc1nn(C)c2c(=O)[nH]c(-c3cc(N4CCC(CCC(=O)NO)CC4)ccc3OCC)nc12 [Example 1-54],10 to 1000,,10 to 1000,1000 to 10000,1000 to 10000
CCCc1nn(C)c2c(=O)[nH]c(-c3cc(OCc4ccc(C(=O)NO)cc4)ccc3OCC)nc12 [Example 1-55],1000 to 10000,,10 to 1000,10 to 1000,> 10000
"CCCc1nn(C)c2c(=O)[nH]c(-c3cc(N4CCC5(CCC(C(=O)NO)C5)CC4)ccc3OCC)nc12 (stereo not drawn) [Example 1-56, 8-[4-ethoxy-3-(1-methyl-7-oxo-3-propyl-6H-pyrazolo[4,3-d]pyrimidin-5-yl)phenyl]-8-azaspiro[4.5]decane-3-carbohydroxamic acid]",> 10000,,10 to 1000,1000 to 10000,> 10000
CCCc1nn(C)c2c(=O)[nH]c(-c3cc(Cc4ccc(/C=C/C(=O)NO)cc4)ccc3OCC)nc12 [Example 1-59],1000 to 10000,,10 to 1000,1000 to 10000,> 10000
CCCc1nn(C)c2c(=O)[nH]c(-c3cc(Cc4ccc(C(=O)NO)cc4OC)ccc3OCC)nc12 [Example 1-60],> 10000,,10 to 1000,> 10000,> 10000
"CCCc1nn(C)c2c(=O)[nH]c(-c3cc(CC4CC(C(=O)NO)C4)ccc3OCC)nc12 (stereo not drawn) [Example 1-62, 3-[[4-ethoxy-3-(1-methyl-7-oxo-3-propyl-6H-pyrazolo[4,3-d]pyrimidin-5 yl)phenyl]methyl]cyclobutanecarbohydroxamic acid]",10 to 1000,,10 to 1000,10 to 1000,10 to 1000
"CCCc1nn(C)c2c(=O)[nH]c(-c3cc(CC4CC(C(=O)NO)C4)ccc3OCC)nc12 (stereo not drawn) [Example 1-63, 3-[[4-ethoxy-3-(1-methyl-7-oxo-3-propyl-6H-pyrazolo[4,3-d]pyrimidin-5 yl)phenyl]methyl]cyclobutanecarbohydroxamic acid]",10 to 1000,,10 to 1000,10 to 1000,1000 to 10000
CCCc1nn(C)c2c(=O)[nH]c(-c3cc(N4CCCC5(CCC(C(=O)NO)CC5)C4)ccc3OCC)nc12 (stereo not drawn) [Example 1-65],1000 to 10000,,10 to 1000,> 10000,> 10000
CCCc1nn(C)c2c(=O)[nH]c(-c3cc(Cc4ccc(C(=O)NO)c(F)c4)ccc3OCC)nc12 [Example 1-66],1000 to 10000,,10 to 1000,10 to 1000,> 10000
CCCc1nn(C)c2c(=O)[nH]c(-c3cc(N4CCC5(CC5C(=O)NO)C4)ccc3OCC)nc12 (stereo not drawn) [Example 1-67],> 10000,,10 to 1000,> 10000,> 10000
CCCc1nn(C)c2c(=O)[nH]c(-c3cc(Cc4ccc(C(=O)NO)cc4F)ccc3OCC)nc12 [Example 1-68],1000 to 10000,,10 to 1000,10 to 1000,> 10000
"CCCc1nn(C)c2c(=O)[nH]c(-c3cc(N4CCC5(CCN(c6ncc(C(=O)NO)cn6)CC5)C4)ccc3OCC)nc12 [Example 1-69, 2-[2-[4-ethoxy-3-(1-methyl-7-oxo-3-propyl-6H-pyrazolo[4,3-d]pyrimidin-5-yl)phenyl]-2,8-diazaspiro[4.5]decan-8-yl]pyrimidine-5-carbohydroxamic acid]",10 to 1000,,10 to 1000,1000 to 10000,1000 to 10000
CCCc1nn(C)c2c(=O)[nH]c(-c3cc(N4CCC5(CCCN(c6ncc(C(=O)NO)cn6)C5)C4)ccc3OCC)nc12 (stereo not drawn) [Example 1-70],10 to 1000,,10 to 1000,1000 to 10000,1000 to 10000
"CCCc1nn(C)c2c(=O)[nH]c(-c3cc(C4CC(C(=O)NO)C4)ccc3OCC)nc12 (stereo not drawn) [Example 1-84, 3-[4-ethoxy-3-(1-methyl-7-oxo-3-propyl-6H-pyrazolo[4,3-d]pyrimidin-5-yl)phenyl]cyclobutanecarbohydroxamic acid]",10 to 1000,,10 to 1000,10 to 1000,1000 to 10000
"CCCc1nn(C)c2c(=O)[nH]c(-c3cc(C4CC(C(=O)NO)C4)ccc3OCC)nc12 (stereo not drawn) [Example 1-85, 3-[4-ethoxy-3-(1-methyl-7-oxo-3-propyl-6H-pyrazolo[4,3-d]pyrimidin-5-yl)phenyl]cyclobutanecarbohydroxamic acid]",1000 to 10000,,10 to 1000,10 to 1000,1000 to 10000
"CCCc1nn(C)c2c(=O)[nH]c(-c3cc(CC4CC4C(=O)NO)ccc3OCC)nc12 (stereo not drawn) [Example 1-86, 2-[[4-ethoxy-3-(1-methyl-7-oxo-3-propyl-6H-pyrazolo[4,3-d]pyrimidin-5-yl)phenyl]methyl]cyclopropanecarbohydroxamic acid]",1000 to 10000,,10 to 1000,1000 to 10000,> 10000
"COc1ccc(C(=O)Nc2c(Cl)cncc2Cl)cc1OC1CCCC1 [Piclamilast, reference compound]",,> 10000,1000 to 10000,,

# Other lines, results leading:
IC50 (HDAC1) [nM],IC50 (PDE9A isoform b) [nM],IC50 (PDE5A) [nM],IC50 (HDAC6) [nM],IC50 (HDAC2) [nM],SMILES
10 to 1000,10 to 1000,1000 to 10000,,,"CC1CN(CC2CCN(c3ncc(C(=O)NO)cn3)CC2)CC1c1nc2c(cnn2C2CCOCC2)c(=O)[nH]1 (racemic) [Example 3-02, 2-(4-((3-(4,5-Dihydro-1-(tetrahydro-2H-pyran-4-yl)-4-oxo-1H-pyrazolo[3,4-d]pyrimidin-6-yl)-4-methylpyrrolidin-1-yl)methyl)piperidin-1-yl)-N-hydroxypyrimidine-5-carboxamide]"
10 to 1000,< 10,,,,C[C@@H]1CN(Cc2ncc(-c3ccc(C(=O)NO)cc3)cn2)C[C@H]1c1nc2c(cnn2C2CCOCC2)c(=O)[nH]1 (racemic) [Example 3-04]
1000 to 10000,10 to 1000,,,,C[C@@H]1CN(Cc2cnc(N3CCC(C(=O)NO)CC3)nc2)C[C@H]1c1nc2c(cnn2C2CCOCC2)c(=O)[nH]1 (racemic) [Example 3-08]
10 to 1000,10 to 1000,< 10,,,"CCCc1nc(C)c2c(=O)[nH]c(-c3cc(S(=O)(=O)N4CCN(CCCC(=O)NO)CC4)ccc3OCC)nn12 [Example 2-02, 4-[4-[4-ethoxy-3-(5-methyl-4-oxo-7-propyl-3H-imidazo[5,1-f][1,2,4]triazin-2-yl)phenyl]sulfonylpiperazin-1-yl]butanehydroxamic acid]"
10 to 1000,1000 to 10000,< 10,,,CCCc1nc(C)c2c(=O)[nH]c(-c3cc(S(=O)(=O)Nc4ccc(/C=C/C(=O)NO)cc4)ccc3OCC)nn12 [Example 2-03]
1000 to 10000,,< 10,10 to 1000,1000 to 10000,CCCc1nc(C)c2c(=O)[nH]c(-c3cc(Cc4ccc(/C=C/C(=O)NO)cc4)ccc3OCC)nn12 [Example 2-08]
> 10000,10 to 1000,,,,CC(c1nc2c(cnn2C2CCOCC2)c(=O)[nH]1)N1CC(Oc2ccc(N3CCC(C(=O)NO)CC3)cc2)C1 (stereo not drawn) [Example 3-05]
10 to 1000,< 10,,,,CC(c1nc2c(cnn2C2CCOCC2)c(=O)[nH]1)N1CC(Oc2ccc(/C=C/C(=O)NO)cc2)C1 (stereo not drawn) [Example 3-06]
10 to 1000,10 to 1000,,,,CC(c1nc2c(cnn2C2CCOCC2)c(=O)[nH]1)N1CC(OC2CCN(c3ncc(C(=O)NO)cn3)CC2)C1 (stereo not drawn) [Example 3-07]
